Assay results taken from ChEMBL document CHEMBL1132868, “A new class of highly cytotoxic diketopiperazines” (Bioorg Med Chem Lett, 2000).
pIC50: −log10 of the molar value.

Tests used:
L1210 = assay: The compound was tested for cytotoxic activity using standard L1210 cell based cytotoxicity assay; format: functional; conditions: Mus musculus
Nucleic Acid = assay: Compound was evaluated for DNA (poly[dA]-poly[dT]) binding affinity; format: nucleic-acid assay

Row | K (Nucleic Acid) | SMILES | pIC50 (L1210)
1 | – | CC(C)(C)OC(=O)Nc1ccc2c(c1)cc1c(=O)n3c(cc4cc(NC(=O)OC(C)(C)C)ccc43)c(=O)n12 | 4.54
2 | – | CN(C)CCCC(=O)Nc1ccc(C(=O)Nc2ccc3c(c2)cc2c(=O)n4c(cc5cc(NC(=O)c6ccc(NC(=O)CCCN(C)C)cc6)ccc54)c(=O)n23)cc1 | 5.15
3 | 203000 | CN(C)CCCC(=O)Nc1ccc2c(c1)cc1c(=O)n3c(cc4cc(NC(=O)CCCN(C)C)ccc43)c(=O)n12 | 7.47
4 | – | Nc1ccc2c(c1)cc1c(=O)n3c(cc4cc(N)ccc43)c(=O)n12 | 4.52
5 | – | CN(C)CCCC(=O)Nc1csc(C(=O)Nc2ccc3c(c2)cc2c(=O)n4c(cc5cc(NC(=O)c6csc(NC(=O)CCCN(C)C)n6)ccc54)c(=O)n23)n1 | 5.40
